According to patent publication US8158621B2, “Methods of treating or preventing autoimmune diseases with 2,4-pyrimidinediamine compounds” (Rigel Pharmaceuticals, Inc., priority 2002, dated 2012):
pIC50: −log10 of the molar value. “And” between values parts separate entries of the source, which are not always exact repeats. Identical values can stand only once.

What was measured:
Syk kinase = molecular target: T1, Syk kinase (Homo sapiens, UniProt P43405); assay: Syk kinase biochemical fluorescence polarization assay; conditions: isolated Syk kinase, fluorescence polarization, 4 uM ATP
T1 construct: purchased Upstate, Lake Placid NY

[1] = tested on: cultured human mast cells (CHMC); assay: CHMC low cell density ionomycin activation: tryptase assay; type: cell-based; conditions: low cell density; read-out: CHMC Ionomycin Tryptase
[2] = tested on: bone marrow derived mast cells (BMMC); assay: BMMC high cell density IgE activation: hexosaminidase; type: cell-based, mouse; conditions: high cell density; read-out: BMMC anti-IgE Hexos.
Procedure: (§1) After sensitizing, cells are counted, pelleted (1000 rpm, 5-10 minutes), and resuspended at 1-3×10^6 cells/ml in MT buffer. Add 100 ul of cell suspension to each well and 100 ul of compound dilutions. The final vehicle concentration is 0.5% DMSO. Incubate at 37° C. (5% CO2) for 1 hour. After 1 hour of compound treatment, stimulate cells with 6× stimulus (60 ng/ml DNP-BSA). Mix wells with the cells and allow plates to incubate at 37° C. (5% CO2) for one hour. After 1 hour incubation, pellet cells (10 minutes, 1000 RPM) and collect 200 ul per well of the supernatant, being careful not to disturb pellet, and transfer to a clean tube or 96-well plate. Place the supernatant plate on ice. During the 4-5 hour step (see next) perform the hexosiminidase assay. Resuspend cell pellet in 240 ul WEI-conditioned media containing 0.5% DMSO and corresponding concentration of compound. Incubate BMMC cells for 4-5 hours at 37° C. (5% CO2). After incubation, pellet cells (1000 RPM, 10 minutes) and collect 225 ul per well and place in −80° C. until ready to perform ELISAS. ELISAS are performed on appropriately diluted samples (determined empirically for each donor cell population so that the sample measurement falls within the standard curve) following the supplier's instructions.
Add 50 uL of BMMC cell supernatant (see above) to the hexoseaminidase substrate, place at 37° C. for 30 minutes and read the plate at 5, 10, 15, and 30 minutes on a spectrophotometer.

[3] = tested on: bone marrow derived mast cells (BMMC); assay: BMMC high cell density IgE activation: IL-6; type: cell-based, mouse; conditions: high cell density; read-out: BMMC anti-IgE IL-6
Procedure: as §1

[4] = tested on: Human Jurkat T-cells (clone N); assay: Jurkat T-cell activation (anti-TCR, CD69 upregulation); type: cell-based
Procedure, shortened: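 Jurkat cells in RPMI + 5% FBS preincubated with compound 1 h at 37 °C, then stimulated with anti-TCR C305 at 500 ng/ml for 20 h. CD69 surface expression stained with anti-CD69-APC and read by flow cytometry; IC50 versus solvent-only control.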

[5] = tested on: differentiated human macrophages; assay: Macrophage activation, IgG stimulation: IL-6; type: cell-based; conditions: stimulus (IgG or LPS) not given; read-out: Monocytes/Macrophage IL-6 IC50
Procedure: CD 14+ monocytes were purified from PBMC (Allcells # PB002) using the Monocyte Isolation kit (Miltenyi biotec #130-045-501) as per the manufacturer's instructions. Purity was assessed by measuring the percentage of CD14+ cells by flow cytometry. Typically >90% purity is achieved. The purified CD14+ cells are then plated out (6×10^6 cells/150 cm TC dish in 15 mls media) in Macrophage-SFM (Gibco #12065-074) with 100 ng/ml of M-CSF (Pepro Tech #300-25) and allowed to differentiate for five days. At the end of that period, cell morphology and cell surface markers (CD14, HLA-DR, B7.1, B7.2, CD64, CD32, and CD16) reflected the presence of mature differentiated macrophage.
(§2) A negative control consisting of the F(ab′)2 fragment was also coated to assess background stimulation. Unbound antibody was washed away 2× with 200 ul PBS. 20 ul of 5× compound was added to each well, followed by the addition 15 k cells of differentiated macrophage in 80 uL that had been scraped off of the plates. The cells were incubated for 16 hr in a 37° C. incubator, and supernatants were collected for Luminex analysis for IL-6 and TNFα, essentially as described for the primary T-cells, above.
Varied concentrations of compound were compared to solvent only to determine the IC50 of each compound for each cytokine Representative IC50 s for 2,4-pyrimidinediamine compounds of the invention are shown in Table 11.

[6] = tested on: cultured human mast cells (CHMC); assay: CHMC low cell density IgE activation: tryptase assay; type: cell-based; conditions: low cell density; read-out: CHMC anti-IgE Tryptase
Procedure, shortened: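 Cells pelleted, taken up in warm MT, plated at 1000-1500/well, held 1 hr 37° C. Anti-IgE added, 30 min 37° C. Plates spun; supernatant mixed with tryptase substrate, 30 min RT.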

[7] = tested on: bone marrow derived mast cells (BMMC); assay: BMMC high cell density IgE activation: TNFalpha; type: cell-based, mouse; conditions: high cell density; read-out: BMMC anti-IgE TNF-alpha
Procedure: as §1

[8] = tested on: differentiated human macrophages; assay: Macrophage activation, IgG stimulation: TNF; type: cell-based; conditions: stimulus (IgG or LPS) not given; read-out: Monocytes/Macrophage TNF IC50
Procedure: Purity was assessed by measuring the percentage of CD14+ cells by flow cytometry.
as §2, with “20 ul of 5× compound was added to each well, followed by the addition 15 k cells of differentiated macrophage in 80 uL that had been scraped off of the plates.” left out

[9] = Mouse Reverse Passive Arthus reaction (RPA reaction); type: in vivo, C57BL/6 mice; conditions: oral, 200 mg/kg
Procedure, shortened: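 C57BL/6 mice dosed with compound before challenge, pretreatment time set by each compound's PK; rabbit anti-OVA IgG (50 μg/mouse) given intradermally, then ovalbumin 20 mg/kg i.v. with 1% Evans blue. Dorsal skin edema and hemorrhage read by dye extravasation at 4 h; purified polyclonal rabbit IgG as control.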

Primary human B-cells = assay: Primary B-cell activation (α-IgM, CD69 upregulation); type: cell-based; conditions: read-out: 1° B-Cell CD69 IC50
Procedure: Primary human B-cells were isolated from buffy coat, the white cell layer that forms between the red cells and the […] when anti-coagulated blood is centrifuged, or from fresh blood using CD19-Dynal® beads and a FACS. Buffy coat was obtained from the Stanford Medical School Blood Centre, prepared on the same day by the blood bank, stored and transported cold (with ice). The buffy coat (approx 35 mL) was placed in a 500 mL conical sterile centrifuge pot and cooled on ice, then diluted with cold PBS containing 0.2% BSA (Sigma: A7638) and sodium citrate (0.1%, Sigma: S-5570) (P—B—C) to a total volume of 200 mL and mixed gently. Fresh blood was collected from donors in 10 mL vacutainers containing heparin (1 vacutainer collects approximately 8.5 mL blood). The blood was cooled on ice, transferred into 50 mL falcon tubes (20 mL/tube) or a 500 mL conical sterile centrifuge pot, and diluted with an equal volume P—B—C.
25 mL diluted blood or buffy coat was layered onto 15 mL cold ficoll and placed back on ice. The ficoll layered blood was centrifuged (Beckman GS-6R) for 45 minutes at 2000 rpm, 4° C. to separate the Peripheral Blood Mononuclear Cells (PBMC) from the Red Blood Cells (RBC) and granulocytes. The top aqueous layer was then aspirated until 1 inch above the PBMC layer. The PBMCs were transferred from every 2 ficoll tubes into one clean 50 mL falcon tube (=approx 10 mL/tube). The transferred PBMCs were diluted 5× with icecold PBS with 0.2% BSA (P—B) and centrifuged for 20 min at 1400 rpm and 4° C. The supernatant (this may be cloudy) was then aspirated and the PBMCs resuspended into 25 mL P—B and the cells counted (using a 1:5 dilution) and kept on ice.
The cells were then positively selected using anti-CD 19 antibody coupled to magnetic beads (Dynal®) as per manufacturer's instructions. The approximate required amount of CD19-Dynal® beads (CD19-coated dyna beads M-450 (pabB), Dynal®) was calculated by estimating the number of B-cells as 5% of PBMCs counted and adding approximately10 beads per cell from the bead stock (4×10^8 beads/mL). The CD19-Dynal® beads were washed 2× in P—B in a 5 mL tube using the Dynal® magnet, then added into the suspended PBMCs. This mixture was then passed through the Dynal® magnet and washed several times to separate the bead-bound cells.
After separation, the beads and antibody were removed using Dynal® CD19-DETACHaBEAD® for 45 min at 30° C. Yield is typically 2×10^7 B-cells per buffy coat. B-cells were washed and resuspended as 1E6 cells/mL in RPMI1640+10% FBS+Penicillin/[…]+1 ng/mL IFNα8. Cells were rested overnight at 37° C. and 5% CO2.
The following day, cells were washed and resuspended in RPMI+2.5% FBS to 1×10^6 cells/mL. Cells were then aliquoted into a V-bottom 96-well plate (Corning) at 65 uL cells per well. By robot, 65 uL of a 2× compound was added to the cells with final concentration of DMSO at 0.2%, and incubated for 1 hr at 37° C. Cells were then stimulated with 20 uL 7.5× α-IgM from Jackson laboratories (final 5 ug/mL) for 24 hrs. At day 3, the cells were spun down and stained for CD69 and analyzed by FACS gated on the live cells (by light scatter).
Varied concentrations of compound were compared to solvent only to determine the inhibition of B-cell activation IC50 of each compound.

SMILES	pIC50 (Syk kinase)	pIC50 [1]	pIC50 [2]	pIC50 [3]	pIC50 [4]	pIC50 [5]	pIC50 [6]	pIC50 [7]	pIC50 [8]	pIC50 (Primary human B-cells)	inhibition of edema formation ([9]; 60 minutes prior to challenge) [%]	% inhibition to vehicle control Edema Size ± SEM ([9]; pretreatment time 0.5 hrs) [%]	% inhibition to vehicle control Edema Size ± SEM ([9]; pretreatment time 1 hrs)	% inhibition to vehicle control Edema Size ± SEM ([9]; pretreatment time 1.5 hrs) [%]
Cn1ncc2ccc(Nc3ncc(F)c(Nc4ccc5c(c4)NC(=O)C(C)(C)O5)n3)cc21 [Compound R940366]	8.52	4.40	7.52	8.00	7.07	7.01	7.43	8.30	7.07					
Cc1cccc(C)c1Nc1ncc(F)c(Nc2ccc3c(c2)NC(=O)C(C)(C)O3)n1 [Compound R927069]	6.95	4.89	5.87	5.96	6.03	5.25	7.12	6.03	5.07					

Second part, led by results:

pIC50 (Syk kinase)	pIC50 [1]	pIC50 [2]	pIC50 [3]	pIC50 [4]	pIC50 [5]	pIC50 [6]	pIC50 [7]	pIC50 [8]	pIC50 (Primary human B-cells)	SMILES	inhibition of edema formation ([9]; 60 minutes prior to challenge) [%]	% inhibition to vehicle control Edema Size ± SEM ([9]; pretreatment time 0.5 hrs) [%]	% inhibition to vehicle control Edema Size ± SEM ([9]; pretreatment time 1 hrs)	% inhibition to vehicle control Edema Size ± SEM ([9]; pretreatment time 1.5 hrs) [%]
				5.81	6.03			5.95	6.10	CNC(=O)COc1cccc(Nc2ncc(F)c(Nc3ccc(OC)c(Cl)c3)n2)c1 [Compound R926891]	54.9	44.8 ± 3.0	46.2 ± 4.1% and 54.9%	28.1 ± 10.6
6.85	< 5.00	6.62	7.00	5.52	6.08	6.65	6.85	5.90		COc1ccc(Nc2ncc(F)c(Nc3ccc4c(c3)NC(=O)[C@@H](C)O4)n2)cc1Cl [Compound R909322]				
6.38	5.08	6.23	6.60		5.12	6.52	6.96	5.36		COc1ccc(Nc2nc(Nc3ccc4cc[nH]c4c3)ncc2F)cc1Cl [Compound R926976]				
